Measured values reported in patent publication US20230144898A1, “INHIBITOR OF ASPARTIC ACID SYNTHESIS IN TUMOR CELLS, INHIBITOR OF SPHEROID FORMATION OF TUMOR CELLS, INHIBITOR OF TUMOR CELL METASTASIS, ACTIVITY ENHANCER OF GLYCOLYTIC INHIBITOR, AND PHARMACEUTICAL COMPOSITION FOR SUPPRESSING AND/OR PREVENTING TUMOR METASTASIS” (CCI HOLDINGS INC., priority 2020, published 2023).
“Also recorded” adds a separate entry of the source.

Assays:
A2058 cells = assay: KEGG Pathway analysis using microarray (Test Example 6); assay type: cell-based, human; details: 3 µM, 8 hours
Protocol: The signaling pathways affected by neopetasin treatment were examined by KEGG Pathway analysis using the microarray. Specifically, A2058 cells were seeded at 0.5×10^5 cells/mL in a six-well plate, and after 24 hours of seeding, neopetasin (final concentration: 3 µM) was suspended in a medium and incubated for 8 hours. A2058 cells thus treated with neopetasin (3 µM) for 8 hours were recovered with a cell scraper. Furthermore, DMSO was administered to the negative control section, and the same experiment was performed. Next, data was collected using SurePrint G3 Human CGH microarray 8x60K (Agilent, CA, USA) and the raw data obtained for each sample was normalized with 75 percentile values (global normalization). Then, using Gene Set Enrichment Analysis (GSEA, Broad Laboratory, Massachusetts Institute of Technology, MA, USA), pathways registered in KEGG, Reactome, and GO were searched.
In FIG. 7, the genes with increased expression are shown in red, the gene groups with decreased expression are shown in blue, and the gene groups with changes therebetween are shown in white. […] In addition, when the heat map was drawn, gene groups included in the variable pathways were extracted, and the log-transformed signal data was subjected to cluster analysis by Ward’s method using JMP version 12.2.0 (SAS Institute Inc.).

[1] = test system: mouse-derived metastatic breast cancer cells Jyg-MC(B); assay: Mouse natural metastasis model (Test Example 12); assay type: in vivo
Source text: In general, the metastasis process follows the course of primary tumor formation, invasion of blood vessels and lymphatic vessels, and fixation and proliferation to lung. Here, the model prepared in Test Example 2 verifies only kinetics of tumor cells after entry into the blood vessel, and the metastasis phenomenon occurring in the actual clinical example also includes other processes in addition to invasion of blood vessels and lymphatic vessels from the primary tumor. Thereupon, in this test example, a subcutaneous tumor (a primary tumor) was generated in a mouse, and a model in which the tumor cells metastasized to lung following all metastasis processes (a natural metastasis model) was prepared.
Specifically, to start with, in order to prepare a natural metastasis model, a nude mouse (BALBc nu/nu, female, 4 weeks old, purchased from Japan SLC) was subcutaneously inoculated with mouse-derived metastatic breast cancer cells Jyg-MC(B). After 24 days of incubation, neopetasin (NP) was administered intraperitoneally at a dose of 50 mg/kg and treated a total of 6 times for 16 days (inoculation at 0, 2, 4, 6, 10, 14 days, respectively). Note that treatment procedure at this time is illustrated in FIG. 13.

B16F10 cells [2] = assay: Lung metastasis of cells pre-treated in vitro, tail vein injection (Test Example 13); assay type: in vivo, mouse; details: cells reacted with 3 µM in vitro; two-week non-treatment period
Protocol: In this test example, neopetasin (NP) was previously reacted with B16F10 cells that are derived from the mouse melanoma at a concentration of 3 µM in vitro. Thereafter, the uniform numbers of living cells were injected into the tail vein of the mice, and thereafter, no treatment was performed, and the number of metastasis lesions formed in the lung after a two-week non-treatment period was counted. The protocol of the present test example is shown in FIG. 19, and the graph showing the results of the present test example and the observation photograph of the extracted lung are shown in FIG. 20. […] Here, if neopetasin (NP) were reducing the number of lung metastasis lesions as part of the proliferation inhibitory effect on tumor cells (in other words, lung metastasis is suppressed as part of the proliferation inhibitory effect), equivalent formation of metastasis lesions should be observed in both neopetasin (NP)-administered group and the control (DMSO-administered group) during the non-treatment period in which the proliferation inhibitory effect is not exerted. However, in reality, as described above, formation of a new metastatic lesion has not been confirmed even after the non-treatment period in neopetasin (NP)-administered group.

[3] = test system: mitochondria in B16F10 cells; assay: Electron microscope observation of treated cells (Test Example 8); assay type: cell-based, mouse; details: neopetasin 3 µM, metformin 5000 µM
Protocol: Following the above results, the cells respectively treated with neopetasin (3 µM) and metformin (5000 µM) in the above were observed using an electron microscope. Furthermore, DMSO was administered to the negative control section, and the same experiment was performed.

[4] = test system: ASF4-1 cells (normal human skin-derived fibroblasts); assay: Proliferation inhibition, normal fibroblasts compared with tumor cells (Test Example 1); assay type: cell-based
Protocol: First, CMeCl cells (canine malignant melanoma cells) were seeded in a six-well plate so as to be 0.5×10^5 cells/mL, and after 24 hours therefrom, each of the above four kinds of compounds (final concentration: 0.01 to 100 µg/mL) was suspended in the medium at a ratio of 0.1% and incubated for 72 hours. 72 hours after the start of culture, the number of viable cells was measured by trypan blue staining. At this time, viable cells (cell viability%) were calculated as the relative number of cells when the number of viable cells in a negative control section (DMSO treatment) was taken as 100%. Then, IC50 was calculated using a GraphPad Prism software system (GraphPad Software Inc.).
Furthermore, the results of the same test as described above using ASF4-1 cells, which are normal human skin-derived fibroblasts, and A2058 cells, which are human malignant melanoma cells, are shown in FIG. 1C in comparison with the case of using B16F10 cells.

B16F10 cells [5] = assay: Western blotting, temporal changes of AMPK, FAK, Akt, ERK1/2 (Test Example 11); assay type: cell-based, mouse; details: 3 µM; 3, 8, 24 and 56 hours
Protocol: Specifically, for B16F10 cells treated with neopetasin (3 µM) or metformin (5000 µM) through the same method as in Test Example 1, the cells were recovered at each of 3 hours, 8 hours, 24 hours, and 56 hours after the treatment with these compounds, and the contents of various proteins were measured by Western blotting through the same method as in Test Example 10. Furthermore, DMSO was administered to the negative control section, and the same experiment was performed.

B16F10 cells [6] = assay: Scratch wound healing assay (Test Example 5); assay type: cell-based, mouse; details: 0.3 µM, 72 hours
Protocol: Specifically, to start with, B16F10 cells were seeded in a six-well plate in an amount of 1.0×10^5 cells/mL. After 24 hours starting from seeding, scratches were then made using 200 µL chips. Thereafter, the medium was changed to a neopetasin-containing one (concentration: 0.3 µM), the cells were further cultured for 72 hours, and the cells were photographed. In addition, as a negative control section, the same experiment was performed by replacing the medium with the same medium not containing neopetasin.

[7] = Microscopic observation of organ tissue sections of model mice (Test Example 2); assay type: in vivo; details: heart, normal site of lung, cerebrum, kidney, liver, spleen, 50 mg/kg i.p.
Protocol: Furthermore, when the model mouse to which neopetasin or corn oil was administered was dissected in the above, sections were prepared from the tissues of each organ (heart, normal site of lung, cerebrum, kidney, liver, spleen) and were observed using a microscope. […] The results are consistent with specificity of the action of neopetasin on tumor cells in vitro as described above in Test

[8] = 50 mg/kg intraperitoneally, 6 times for 16 days

SMILES: C=C(C)[C@H]1C[C@@]2(C)C(=CC1=O)CC[C@@H](OC(=O)/C(C)=C\C)[C@@H]2C [Neopetasin, neopetasin]
- changes in asparagine synthetase (ASNS) and cystathionine gamma-lyase (CTH) (A2058 cells): particularly significant changes
- expression of molecules involved in amino acid metabolism (A2058 cells): greatly varies
- lung metastasis lesions [1, 8]: significant decrease in lung metastasis lesions
- lymph node metastasis (weight of the axillary lymph node) [1, 8]: exhibits an inhibitory effect on lymph node metastasis
- degree and weight of lymph node swelling ([1]; excluding examples without lymph node swelling): decreased
- formation of metastasis lesions in lung (B16F10 cells [2]): formation of metastasis lesions was not observed
- influence on mitochondria (electron microscope) [3]: most mitochondria were vacuolated
- inhibitory effect on proliferation of / cytotoxicity to normal cells ([4]; ASF4-1 cells): hardly exhibits the inhibitory effect on proliferation of normal cells; also recorded: shows no cytotoxicity
- IC50 for ASF4-1 cells (normal cells) relative to IC50 for tumor cells ([4]; versus A2058 cells and B16F10 cells): ≥ 1000 fold
- AMPK change (B16F10 cells [5]): changes at the earliest stage (3 hours)
- Akt and ERK (B16F10 cells [5]): inactivated
- FAK (B16F10 cells [5]): inactivated
- migration of tumor cells to the scratch portion (B16F10 cells [6]): suppressed
- histological and morphological changes / toxicity in organs [7]: no histological and morphological changes; also recorded: showed little toxicity to the liver, kidney, spleen
